The results in this text go back to patent US8889699B2, “5-fluorouracil derivative” (Delta-Fly Pharma, Inc., priority 2009, dated 2014).

Like-named read-outs stand apart in the source and are kept apart here.

A word on the inhibition: it is the drop in the measured response relative to a control, in per cent. As a reminder, the IC50 is the concentration needed to halve the response being measured.

The target of the assay is T1, OPRT (Homo sapiens, UniProt P11172).
T1 construct: the obtained supernatant was used as a DPD enzyme solution or an OPRT enzyme solution; from tissue; 105,000 g supernatant of homogenate
T1 sequence (P11172 1-480): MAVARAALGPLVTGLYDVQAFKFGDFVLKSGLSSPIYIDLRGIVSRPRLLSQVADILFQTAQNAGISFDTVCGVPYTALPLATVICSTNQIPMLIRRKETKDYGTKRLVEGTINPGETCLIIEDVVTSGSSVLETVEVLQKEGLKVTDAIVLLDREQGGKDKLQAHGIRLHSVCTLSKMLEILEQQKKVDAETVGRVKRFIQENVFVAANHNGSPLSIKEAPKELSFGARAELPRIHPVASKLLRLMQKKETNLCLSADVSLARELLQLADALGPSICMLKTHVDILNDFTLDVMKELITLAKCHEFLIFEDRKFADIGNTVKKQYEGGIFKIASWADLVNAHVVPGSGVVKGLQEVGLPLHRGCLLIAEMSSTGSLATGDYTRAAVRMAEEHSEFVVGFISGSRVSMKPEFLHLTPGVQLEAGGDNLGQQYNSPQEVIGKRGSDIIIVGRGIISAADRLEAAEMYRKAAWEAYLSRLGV
Briefly: OPRT inhibitory action in vitro (enzyme reaction, tritium-labeled 5-FU as substrate). Type of assay: biochemical. Here is the method:
The resulting product was diluted to concentrations of 1 mM, 100 μM, 10 μM, and 1 μM with a 10 mM potassium phosphate buffer solution (pH 6.0), thereby obtaining Test Liquids 1. The obtained Test Liquids 1 were separately added to the enzyme reaction solution described below to give final concentrations of 200 μM, 20 μM, 2 μM, and 0.2 μM. • (b) Test liquid preparation (2): As a DPD inhibitor, 5-chloro-2,4-dihydroxypyridine (CDHP; gimeracil) was dissolved to a concentration of 10 mM in a 10 mM potassium phosphate buffer solution (pH 6.0). The resulting product was diluted to concentrations of 1 mM, 100 μM, 10 μM, and 1 μM, thereby obtaining Test Liquids 2. The obtained Test Liquids 2 were separately added to the enzyme reaction solution to give final concentrations of 200 μM, 20 μM, 2 μM, and 0.2 μM. • (c) Test liquid preparation (3): As an OPRT inhibitor, citrazinic acid (Citra. A.) was dissolved to a concentration of 10 mM in 20 mM trishydroxyaminomethane-hydrochloric buffer solution (pH 8.0). Thereafter, the resulting product was diluted to concentrations of 1 mM, 100 μM, and 10 μM with a 10 mM potassium phosphate buffer solution, thereby obtaining Test Liquids (3). The obtained Test Liquids 3 were separately added to the enzyme reaction solution to give final concentrations of 200 μM, 20 μM, and 2 μM. • (d) Preparation of enzyme solution: The liver of an 8-week old SD rat was used as a DPD enzyme source, while human tumor cells that had been transplanted into a nude mouse and proliferated therein were used as an OPRT enzyme source. Specifically, immediately after a rat liver or successively-transplanted human tumor cells were extracted, a 50-mM tris-hydrochloric acid buffer solution (pH 8.0) containing 0.25 M saccharose, 5 mM magnesium chloride, and 1 mM dithreitol was added thereto to a concentration of 25% (w/v) and homogenized. Thereafter, ultracentrifugation was performed at 105,000 g for 60 minutes, and the obtained supernatant was used as a DPD enzyme solution or an OPRT enzyme solution. • (e) Enzyme reaction: A DPD enzyme reaction was carried out in accordance with the method of Tatsumi et al. (Gann, 78: 748-755 (1987)) using 5-FU labeled with tritium as a substrate. An OPRT enzyme reaction was carried out in accordance with the method of Shirasaka et al. (Cancer Res., 53: 4004-4009 (1993)) using 5-FU labeled with tritium as a substrate. Then, the activity of a control group (with no test compound) and test compound groups was measured. The percent inhibition of the test compound relative to DPD or OPRT was calculated using the following formula: [1-(the enzyme activity with the test compound/the enzyme activity of the control group)]×100(%).
The resulting product was diluted to concentrations of 1 mM, 100 μM, 10 μM, and 1 μM with a 10 mM potassium phosphate buffer solution (pH 6.0), thereby obtaining Test Liquids 1. The obtained Test Liquids 1 were separately added to the enzyme reaction solution described below to give final concentrations of 200 μM, 20 μM, 2 μM, and 0.2 μM. • (b) Preparation of enzyme solution: The liver of an 8-week old SD rat was used as a DPD enzyme source, while human tumor cells that had been transplanted into a nude mouse and proliferated therein were used as an OPRT enzyme source. Specifically, immediately after a rat liver or successively-transplanted human tumor cells were extracted, a 50-mM tris-hydrochloric acid buffer solution (pH 8.0) containing 0.25 M saccharose, 5 mM magnesium chloride, and 1 mM dithreitol was added thereto to a concentration of 25% (w/v) and homogenized. Thereafter, ultracentrifugation was performed at 105,000 g for 60 minutes, and the obtained supernatant was used as a DPD enzyme solution or an OPRT enzyme solution. • (c) Enzyme reaction: A DPD enzyme reaction was carried out in accordance with the method of Tatsumi et al. (Gann, 78: 748-755 (1987)) using 5-FU labeled with tritium as a substrate. […]

[1] abbreviates: 0.2 μM, Table 2, read-out: OPRT Inhibition (%).
[2] abbreviates: 2 μM, Table 2, read-out: OPRT Inhibition (%).
The mark [3] stands for this setting: Conc. 0.2 μM, Table 1, read-out: OPRT Inhibitory Activity: Inhibition.
Setting [4] is: Conc. 2 μM, Table 1, read-out: OPRT Inhibitory Activity: Inhibition.

For the compound `O=C(O)c1cc(O)nc(O)c1` [Citra. A., citrazinic acid, reference compound], the inhibition at 0.2 µM came out at 31.9% under setting [1] and 0% under setting [3]. In addition, the inhibition at 2 µM runs as follows: under setting [2], 75.1%; under setting [4], 20%. Further, the “OPRT Inhibitory Activity: Activity” value (Conc. 0.2 μM, Table 1) was found to be 0.379 nmol/mL/min; the “OPRT Inhibitory Activity: Activity” value (Conc. 2 μM, Table 1) came to 0.301 nmol/mL/min; the “OPRT Inhibitory Activity: Activity” value (Conc. 20 μM, Table 1) amounted to 0.173 nmol/mL/min; the “OPRT Inhibitory Activity: Activity” value (Conc. 200 μM, Table 1) is 0.075 nmol/mL/min. Where the note is “Conc. 20 μM, Table 1”, the inhibition at 20 µM is 54%. This compound also displayed an inhibition at 200 µM (Conc. 200 μM, Table 1) of 80%.

With `CCOCn1cc(F)c(=O)n(C(=O)c2cccc(C(=O)Oc3cc(OC(=O)c4cc(O)nc(O)c4)c(Cl)cn3)c2)c1=O` [Compound I-2, 3-{3-[4-(2,6-dihydroxyisonicotinoyloxy)-5-chloro-2-pyridyloxycarbonyl]benzoyl}-1-ethoxymethyl-5-fluorouracil], the “OPRT Inhibitory Activity: Activity” value (Conc. 0.2 μM, Table 1) was found to be 0.375 nmol/mL/min; the “OPRT Inhibitory Activity: Activity” value (Conc. 2 μM, Table 1) worked out at 0.280 nmol/mL/min; the “OPRT Inhibitory Activity: Activity” value (Conc. 20 μM, Table 1) worked out at 0.168 nmol/mL/min; the “OPRT Inhibitory Activity: Activity” value (Conc. 200 μM, Table 1) amounted to 0.069 nmol/mL/min. Also, the inhibition at 0.2 µM under setting [3] is 0%. Besides, the inhibition at 2 µM under setting [4] was found to be 25.5%. Further, the inhibition at 20 µM (Conc. 20 μM, Table 1) worked out at 55.3%. The inhibition at 200 µM (Conc. 200 μM, Table 1) is 81.6%.

As for `CCOCn1cc(F)c(=O)n(C(=O)c2cccc(C(=O)Oc3cc(OC(=O)c4cc(OC(=O)C5CCCC5)nc(OC(=O)C5CCCC5)c4)c(Cl)cn3)c2)c1=O` [Compound I-9, 3-{3-[4-(2,6-dicyclopentanecarbonyloxyisonicotinoyloxy)-5-chloro-2-pyridyloxycarbonyl]benzoyl}-1-ethoxymethyl-5-fluorouracil], under setting [1], the inhibition at 0.2 µM turned out to be 41.2%. Also, the inhibition at 2 µM under setting [2] is 75.9%.

In the case of `CCOCn1cc(F)c(=O)n(C(=O)c2cccc(C(=O)Oc3cc(OC(=O)c4cc(OC(C)=O)nc(OC(C)=O)c4)c(Cl)cn3)c2)c1=O` [Compound I-10, 3-{3-[4-(2,6-diacetyloxyisonicotinoyloxy)-5-chloro-2-pyridyloxycarbonyl]benzoyl}-1-ethoxymethyl-5-fluorouracil], the inhibition at 0.2 µM under setting [1] came to 27.8%. Moreover, under setting [2], the inhibition at 2 µM came to 76.4%.

With `CCOCn1cc(F)c(=O)n(C(=O)c2cccc(C(=O)Oc3cc(OC(=O)c4cc(OC(=O)CC)nc(OC(=O)CC)c4)c(Cl)cn3)c2)c1=O` [Compound I-11, 3-{3-[4-(2,6-dipropionyloxyisonicotinoyloxy)-5-chloro-2-pyridyloxycarbonyl]benzoyl}-1-ethoxymethyl-5-fluorouracil], the 50% inhibitory concentration (IC50) (5-FU as substrate, Test Example 4, read-out: IC50 of OPRT activity inhibition) was around 15 µM. Moreover, the “OPRT Inhibitory Activity: Activity” value stood at 0.101 nmol/mL/min (Conc. 0.2 μM, Table 5); 0.098 nmol/mL/min (Conc. 2 μM, Table 5); 0.046 nmol/mL/min (Conc. 20 μM, Table 5). Further, the inhibition at 0.2 µM (Conc. 0.2 μM, Table 5, read-out: OPRT Inhibitory Activity: Inhibition) came out at 42.6%. For the same compound, the inhibition at 2 µM (Conc. 2 μM, Table 5, read-out: OPRT Inhibitory Activity: Inhibition) amounted to 73.4%. This compound had an inhibition at 20 µM (Conc. 20 μM, Table 5) of 87.5%.
